How the values were obtained:
hTAS2R46 [1] = target: T1, hTAS2R46 (Homo sapiens, UniProt P59540); experiment: calcium imaging (FLIPR), activation of hTAS2R-transfected HEK293T-Gα16gust44 cells; type: cell-based; settings: absence of agonist
T1 construct: expressed in transfected cells; host or cells: HEK293T cells stably expressing chimeric Gα16gust44, transient transfection
T1 sequence (P59540 1-309): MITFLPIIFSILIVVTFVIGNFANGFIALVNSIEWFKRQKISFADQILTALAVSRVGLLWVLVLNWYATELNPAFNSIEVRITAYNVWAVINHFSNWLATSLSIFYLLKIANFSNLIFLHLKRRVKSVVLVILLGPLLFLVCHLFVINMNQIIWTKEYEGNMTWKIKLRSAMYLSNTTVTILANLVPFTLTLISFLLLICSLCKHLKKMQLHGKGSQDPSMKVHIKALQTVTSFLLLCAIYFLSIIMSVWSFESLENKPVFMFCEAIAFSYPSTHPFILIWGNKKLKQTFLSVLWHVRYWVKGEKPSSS
Source text: (§1) Human TAS2R cDNAs were cloned into pcDNA5/FRT (Invitrogen, San Diego, Calif.). For adequate plasma membrane targeting, receptor cDNA was fused to the aminoterminal sequence of the rat somatostatin type 3 receptor at the aminoterminus of the recombinant protein (Bufe, B., T. Hofmann, et al. (2002) Nat Genet. 32(3): 397-401). For immunological detection, the Herpes simplex Glycoprotein D epitope was supplemented at the carboxyterminus of the recombinant protein (Bufe et al., supra). Receptor constructs were transiently transfected into HEK293T cells stably expressing the chimeric G protein subunit Gα16gust44 (Ueda, T., S. Ugawa, et al. (2003) J Neurosci 23(19): 7376-80) using Lipofectamine 2000 (Invitrogen, San Diego, Calif.) in 96-well plates.
Calcium Imaging experiments were performed 24 h after transfection using a Fluorometric Imaging Plate Reader (FLIPR, Molecular Devices, Munich, Germany) as previously described (Bufe et al., supra). Taste active compounds were ordered from Sigma (Sigma-Aldrich, Taufkirchen, Germany). Absinthin, 3β hydroxy dihydro costunolide and 3β hydroxy pelenolide were kindly provided by Giovanni Appendino (Novara, Italy). Test substances were directly dissolved in C1 buffer (130 mM NaCl, 10 mM Na-Hepes, 10 mM Glucose, 5 mM KCl, 2 mM CaCl2, pH 7.4) or in DMSO, respectively. DMSO stocks were further diluted in C1 buffer not exceeding a final DMSO concentration of 1% on the cells. For the investigation of antagonistic effects, test substances were premixed. Agonists were applied at concentrations corresponding to EC90, except where indicated otherwise (Table 2). Data were collected from 3 independent experiments performed in quadruplicates and processed with SigmaPlot (SPSS, Chicago, Ill.). Fluorescence signals after application of test substances were corrected for and normalized to background fluorescence (ΔF/F═(F−F0)/F0), and baseline noise was subtracted. Calculation of dose-response curves was done by nonlinear regression using the function f(y)=((a−d)/(1+(x/EC50)^nH)+d). […]
(§2) Finally, the impact of chemical modifications on the antagonistic properties of 3β hydroxy dihydro costunolide on hTAS2R46-expressing cells was studied. Derivatives of 3β hydroxy dihydro costunolide with site-directed modifications at C3 and C11 were generated (FIG. 7A) These derivatives were tested for activation or inhibition of hTAS2R46-expressing cells in the absence or presence of the agonist strychnine (3 μM) and half-maximum effective concentrations (EC50) or half-maximal inhibitory concentrations were calculated (FIG. 7B).

hTAS2R46 [2] = target: T1, hTAS2R46; experiment: calcium imaging (FLIPR), effect on agonist-dependent hTAS2R activation; type: cell-based; settings: presence of agonist strychnine 3 μM
Source text: as §1
Calcium Imaging experiments were performed 24 h after transfection using a Fluorometric Imaging Plate Reader (FLIPR, Molecular Devices, Munich, Germany) as previously described (Bufe et al., supra). Taste active compounds were ordered from Sigma (Sigma-Aldrich, Taufkirchen, Germany). Absinthin, 3β hydroxy dihydro costunolide and 3β hydroxy pelenolide were kindly provided by Giovanni Appendino (Novara, Italy). Test substances were directly dissolved in C1 buffer (130 mM NaCl, 10 mM Na-Hepes, 10 mM Glucose, 5 mM KCl, 2 mM CaCl2, pH 7.4) or in DMSO, respectively. DMSO stocks were further diluted in C1 buffer not exceeding a final DMSO concentration of 1% on the cells. For the investigation of antagonistic effects, test substances were premixed. Agonists were applied at concentrations corresponding to EC90, except where indicated otherwise (Table 2). Data were collected from 3 independent experiments performed in quadruplicates and processed with SigmaPlot (SPSS, Chicago, Ill.). Fluorescence signals after application of test substances were corrected for and normalized to background fluorescence (ΔF/F═(F−F0)/F0), and baseline noise was subtracted. Calculation of dose-response curves was done by nonlinear regression using the function f(y)=((a−d)/(1+(x/EC50)^nH)+d).
To test 3β hydroxy dihydro costunolide and 3β hydroxy pelenolide for antagonistic or enhancing effects on hTAS2R activation, transfected cells were stimulated with cognate agonist bitter substances at EC90 concentrations (Table 2) without 3β hydroxy dihydro costunolide and 3β hydroxy pelenolide. The cellular responses after application of the agonist alone were set to 100%, responses obtained after coapplication of agonists and 100 μM 3β hydroxy dihydro costunolide or 100 μM 3β hydroxy pelenolide are shown relative to this value (FIG. 4).
Next we determined concentrations of half-maximal inhibition of TAS2R46. FIG. 5 illustrates the concentration-inhibition curves of TAS2R46 activated by picrotoxinin in the presence of various concentrations of 3β hydroxy dihydro costunolide or 3β hydroxy pelenolide. […] In agreement with the data described above the costunolide analog appears to be more potently inhibiting TAS2R46 than the pelenolide analog. […] As expected 3β hydroxy pelenolide has to be employed at ˜6 fold higher concentrations than 3β hydroxy dihydro costunolide to achieve 50% receptor inhibition.
Next, we established concentration-response curves for strychnine at TAS2R46 in the presence of various concentrations of 3β hydroxy dihydro costunolide.
as §2

action on hTAS2R46-expressing cells (activation) (hTAS2R46 [1]) | SMILES | action on hTAS2R46-expressing cells (inhibition) (hTAS2R46 [2])
no influence on the agonistic properties | C/C1=C\[C@H]2OC(=O)[C@@H](C)[C@@H]2CC/C(C)=C/CC1 [dihydro costunolide] | –
agonist | C=C1C(=O)O[C@@H]2/C=C(\C)CC/C=C(\C)CC[C@@H]12 [Costunolide, reference compound] | –
– | C/C1=C\CC(=O)/C(C)=C/[C@H]2OC(=O)[C@@H](C)[C@@H]2CC1 [3keto dihydro costunolide] | antagonists

SMILES | action on hTAS2R46-expressing cells (activation) (hTAS2R46 [1]) | action on hTAS2R46-expressing cells (inhibition) (hTAS2R46 [2])
CC(=O)O[C@H]1C/C=C(\C)CC[C@H]2[C@H](C)C(=O)O[C@@H]2/C=C/1C [3β hydroxy dihydro costunolide acetate] | agonists | –
